Test results: PubChem BioAssay AID2060895 (Molecular Pharmacology Branch, DTP, NCI, 2025)
Where “and” joins values, the source holds several entries; their conditions need not be identical. Equal values may be shown once.

Tested on: PDC 899932-113-R3-J6 complex spheroid viability
Assay: Anticancer human tumor 899932-113-R3-J6-PDC patient-derived melanoma cell line growth inhibition [RAS]
Details: for viability, T/C: stronger effect = lower value
Source text: RAS pathway inhibitors in Combinations in Complex Spheroids
A high-throughput screen of multi-cell type tumor spheroids was designed to identify active combinations of RAS pathway inhibitors and targeted small molecules. Complex spheroids include a stromal component modeled by human endothelial cells (HUVEC) and fibroblasts modeled by human mesenchymal stem cells (MSCs). The concentration ranges selected for each drug and investigational agent were based upon clinically achievable concentrations if the clinical Cmax of the agent was known.
Compounds. The drugs and investigational agents: abemaciclib (NSC768073), cobimetinib (NSC768068), divarasib (GDC6063, NSC841802), docetaxel (NSC628503), GDC-1971 (RLY-1971, NSC841576), gemcitabine (NSC613327), inavolisib (NSC800729), ipatasertib (NSC767898), KB-0742 (NSC834161), MRTX-1133 (NSC836407), osimertinib (NSC779217), RMC-4630 (NSC839698), RMC-6236 (NSC851965), RMC-6291 (NSC852671), Ro-3306 (NSC812927), sapanisertib (NSC764658), SN-38 (NSC673596), staurosporine (NSC755774), SY5609 (NSC837396), and tovorafenib (DAY101, NSC766906), were obtained from the National Cancer Institute (NCI) Developmental Therapeutics Program Chemical Repository. The FDA-approved anticancer drug set is available from the NCI Developmental Therapeutics Program. […] The stock solutions were prepared in dimethyl sulfoxide (DMSO, Sigma-Aldrich, St. Louis, MO, cat. D2650) at 800-fold the tested concentration and stored at -70 degrees C prior to their use. All drugs and investigational agents were tested over a range starting from a high concentration at or near the clinical Cmax and decreasing in half-log increments. If the clinical Cmax for an agent had not been determined, the highest concentration tested was 10 microM.
Cell Culture. All cells were maintained in an incubator at 37 degrees C and 5% CO2 with 95% humidity. The PDC lines were cultured according to standard operating procedures established by the NCI PDMR. All PDCs were thawed and cultured in Matrigel-coated flasks prepared with a working solution of 1X Ham's F-12 nutrient mix, without supplementation (Invitrogen, Waltham, MA, cat. 11765054), 100 U/mL penicillin-streptomycin (Invitrogen, cat. 15140122), and 2.5% Matrigel (Corning Inc., Corning, NY, cat. 354248) for the first three passages. The 362531-283-R-J2-PDC and 782815-120-R-J1-PDC lines were cultured in 6C/Colon 1B media, which includes advanced DMEM/F-12 (Thermo Fisher Scientific, cat. 12634028), 10 mM HEPES (Thermo Fisher Scientific, cat. 15630080), 1X GlutaMAX supplement (Thermo Fisher Scientific, cat. 35050061), 0.1 mg/mL primocin (InvivoGen, San Diego, CA, cat. ant-pm-2), 10% defined fetal bovine serum, heat inactivated (HyClone Laboratories Inc., Logan, UT, cat. SH30070.03HI), 50% L-WRN conditioned media (ATCC, cat. CRL-3276), 1.25 mM N-Acetyl-L-cysteine (Sigma-Aldrich, cat. A9165), 10 mM nicotinamide (Sigma-Aldrich, cat. N0636), 1X B-27 supplement (Thermo Fisher Scientific, cat. 17504044), 1X N-2 supplement (Thermo Fisher Scientific, cat. 17502048), 50 ng/mL human EGF (Thermo Fisher Scientific, cat. PHG0311), and 10 microM Y-27632 dihydrochloride (Tocris Bioscience, cat. 1254). The K12877-001-R-J1-PDC line was cultured in 6I media, which includes all 6C/Colon 1B media plus 10 ng/mL human FGF-10 (PeproTech, cat. 100-26), 1 ng/mL human FGF-2 (PeproTech, cat. 100-18B), 1 µM prostaglandin E2 (Tocris Bioscience, cat. 2296), […] hydrocortisone (Sigma-Aldrich, cat. H4001), and […] bovine insulin (Sigma-Aldrich, cat. I6634). The K86415-001-R-J1-PDC line was cultured in 6D media, which includes all 6C/Colon 1B media components minus the L-WRN conditioned media. The 485176-168-R4-J1-PDC was cultured in PANC media, which includes all 6C/Colon 1B media plus 100 ng/mL human FGF-10 (PeproTech, cat. 100-26), 500 nM SB-431542 (Selleckchem, cat. S1067), and 10 nM gastrin (Tocris Bioscience, cat. 3006). […]
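Wherever viability, T/C is given: spheroids exposed to agents for seven days before readout; 100% = DMSO vehicle control wells.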

SMILES	viability, T/C (compound 0.0316 µM)	viability, T/C (compound 0.1 µM)	viability, T/C (compound 0.316 µM)	viability, T/C (compound 3.16 µM)	viability, T/C (compound 10 µM)	IC50 (curve of compound)	viability, T/C (compound 0.00316 µM)	viability, T/C (compound 0.01 µM)	viability, T/C (compound 1 µM)	viability, T/C (compound 0.000949 µM)	viability, T/C (compound 0.003 µM)	viability, T/C (compound 0.00949 µM)	viability, T/C (compound 0.03 µM)	viability, T/C (compound 0.0949 µM)	viability, T/C (compound 0.3 µM)	IC50 (compound alone, run of 08/26/2024)	IC50 (compound alone, run of 08/20/2024) [nM]
CCC(CC)c1cc(NC2CCC(N)C2)n2nccc2n1 (stereo unspecified)	106% [middle of 4 runs]	94.7% [middle of 4 runs]	99.3% [middle of 4 runs]	1.29% [middle of 4 runs]	1% [middle of 4 runs]	1.63 µM [middle of 4 runs]	–	–	–	–	–	–	–	–	–	–	–
CCN1CCN(Cc2ccc(Nc3ncc(F)c(-c4cc(F)c5nc(C)n(C(C)C)c5c4)n3)nc2)CC1	97% [middle of 4 runs]	80.7% [middle of 4 runs]	71% [middle of 4 runs]	–	–	583 nM [middle of 4 runs]	104% [middle of 4 runs]	97.6% [middle of 4 runs]	30.1% [middle of 4 runs]	–	–	–	–	–	–	–	–
CCc1c2c(nc3ccc(O)cc13)-c1cc3c(c(=O)n1C2)COC(=O)[C@]3(O)CC	–	–	–	–	–	–	–	–	–	94.3% [middle of 4 runs]	69.3% [middle of 4 runs]	58.9% [middle of 4 runs]	48.3% [middle of 4 runs]	42.1% [middle of 4 runs]	32.8% [middle of 4 runs]	–	–
CCn1c(-c2cc(N3CCN(C)CC3)cnc2C(C)OC)c2c3cc(ccc31)-c1csc(n1)CC(NC(=O)C1CC1C)C(=O)N1CCCC(N1)C(=O)OCC(C)(C)C2 (stereo unspecified)	–	–	–	–	–	–	–	–	–	76% [middle of 8 runs]	38.2% [middle of 8 runs]	3.79% [middle of 8 runs]	3.16% [middle of 8 runs]	2.66% [middle of 8 runs]	2.33% [middle of 8 runs]	2.05 nM [middle of 7 runs]	–
CCn1c(-c2cccnc2C(C)OC)c2c3cc(ccc31)N1CCOC(CC(NC(=O)C(C(C)C)N(C)C(=O)C3(F)CCN(C(=O)C#CC(C)(C)N(C)C)CC3)C(=O)N3CCCC(N3)C(=O)OCC(C)(C)C2)C1 (stereo unspecified)	–	–	–	–	–	–	–	–	–	110% [middle of 8 runs]	108% [middle of 8 runs]	105% [middle of 8 runs]	106% [middle of 8 runs]	98.7% [middle of 8 runs]	92.5% [middle of 8 runs]	–	> 300
C[C@@H](NC(=O)c1ncnc(N)c1Cl)c1ncc(C(=O)Nc2cc(C(F)(F)F)c(Cl)cn2)s1	126% [middle of 4 runs]	132% [middle of 4 runs]	–	105% [middle of 4 runs]	32.6% [middle of 4 runs]	7.59 µM [middle of 4 runs]	–	–	–	–	–	–	–	–	–	–	–
Nc1ccn(C2OC(CO)C(O)C2(F)F)c(=O)n1 (stereo unspecified)	32.3% [middle of 4 runs]	19.3% [middle of 4 runs]	21% [middle of 4 runs]	–	–	17 nM and 10.3 nM and 16.8 nM	103% (2×) and 77.4% and 105%	65.5% [middle of 4 runs]	22.2% [middle of 4 runs]	–	–	–	–	–	–	–	–
O=C(c1ccc(F)c(F)c1Nc1ccc(I)cc1F)N1CC(O)([C@@H]2CCCCN2)C1	6.94% [middle of 4 runs]	3.21% [middle of 4 runs]	1.96% [middle of 4 runs]	–	–	7.85 nM [middle of 4 runs]	74% [middle of 4 runs]	–	1.06% [middle of 4 runs]	–	–	–	–	–	–	–	–
